Experimental data: ChEMBL document CHEMBL4229332, “Novel multi-target azinesulfonamides of cyclic amine derivatives as potential antipsychotics with pro-social and pro-cognitive effects” (Eur J Med Chem, 2018)

Columns and labels:
[1] = target: Beta-1 adrenergic receptor (Homo sapiens) (UniProt P08588); experiment: Displacement of [3H]-CGP 12177 from human adrenergic beta1 receptor expressed in HEK293 cells at 10^-6 M after 60 mins by scintillation counting method relative to control; format: cell-based
Beta-1 adrenergic receptor (Homo sapiens), sequence (P08588 whole entry, looked up): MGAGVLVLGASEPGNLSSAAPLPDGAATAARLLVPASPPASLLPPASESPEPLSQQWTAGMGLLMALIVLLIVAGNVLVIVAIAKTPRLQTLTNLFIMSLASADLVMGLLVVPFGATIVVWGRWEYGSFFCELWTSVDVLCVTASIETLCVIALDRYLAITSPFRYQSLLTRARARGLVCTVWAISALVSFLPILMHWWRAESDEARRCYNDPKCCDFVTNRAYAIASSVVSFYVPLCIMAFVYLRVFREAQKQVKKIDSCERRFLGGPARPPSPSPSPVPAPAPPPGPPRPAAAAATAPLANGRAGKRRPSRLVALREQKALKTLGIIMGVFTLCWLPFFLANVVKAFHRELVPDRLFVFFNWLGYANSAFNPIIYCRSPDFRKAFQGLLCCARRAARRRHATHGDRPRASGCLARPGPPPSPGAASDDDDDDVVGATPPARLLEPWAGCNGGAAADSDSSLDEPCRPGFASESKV

[2] = target: Sodium-dependent serotonin transporter (Homo sapiens, UniProt P31645); experiment: Displacement of [3H]-imipramine from human SERT expressed in CHO cells at 10^-6 M after 60 mins by scintillation counting method relative to control; format: cell-based
Sodium-dependent serotonin transporter, sequence (P31645 whole entry, looked up): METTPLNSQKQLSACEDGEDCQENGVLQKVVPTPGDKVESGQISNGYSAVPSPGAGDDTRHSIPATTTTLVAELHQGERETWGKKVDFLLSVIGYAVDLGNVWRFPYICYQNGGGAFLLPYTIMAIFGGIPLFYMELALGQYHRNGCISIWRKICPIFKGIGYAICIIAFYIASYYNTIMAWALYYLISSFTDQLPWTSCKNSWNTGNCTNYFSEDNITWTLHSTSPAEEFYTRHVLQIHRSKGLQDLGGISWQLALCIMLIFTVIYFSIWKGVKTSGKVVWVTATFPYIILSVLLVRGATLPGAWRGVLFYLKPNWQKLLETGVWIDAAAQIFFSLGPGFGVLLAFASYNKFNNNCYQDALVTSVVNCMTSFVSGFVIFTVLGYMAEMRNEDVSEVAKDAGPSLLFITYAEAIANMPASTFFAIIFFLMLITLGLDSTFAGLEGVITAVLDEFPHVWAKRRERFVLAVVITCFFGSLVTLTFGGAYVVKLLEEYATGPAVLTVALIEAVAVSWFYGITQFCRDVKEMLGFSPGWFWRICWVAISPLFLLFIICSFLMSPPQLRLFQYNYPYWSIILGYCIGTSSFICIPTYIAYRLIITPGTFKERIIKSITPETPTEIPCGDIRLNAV

## O=S(=O)(c1cncc2ccccc12)N1CCC[C@H]1CCN1CCN(c2cccc3sccc23)CC1
[1]
  inhibition: 31%
[2]
  inhibition: 84%
